Measurements as given in PMC7932521, “2-aminobenzimidazoles for leishmaniasis: From initial hit discovery to in vivo profiling” (PLoS Neglected Tropical Diseases, 2021).
Read-outs that look alike come from different tables or passages of the source.

What was measured:
[1] = test system: Leishmania infantum MHOM/MA(BE)/67/ITMAP263 amastigotes; assay: L. infantum intracellular amastigote assay in PMM; format: cell-based; conditions: for IC50: Leishmania infantum, read-out: L. infantum IC50; for SI: selectivity index (CC50 / IC50): CC50 / L. infantum IC50; for potency compared to initial hit 1: L. infantum IC50
Protocol: (§1) Leishmania infantum MHOM/MA(BE)/67/ITMAP263 amastigotes were collected from the spleen of infected donor Golden hamsters. Primary peritoneal mouse macrophages (PMM) were used as host cells for in vitro assays. PMM were collected from Swiss mice after 2 days of peritoneal stimulation with a 2% suspension of potato starch and maintained in RPMI-1640 medium supplemented with 200 mM L-glutamine, antibiotics and 5% FCS at 37°C and 5% CO2. Promastigotes of L. infantum chagasi (luciferase) (MHOM/BR/2005/NLC) obtained as described in Reimão et al.,[27] were grown in M199 medium supplemented with 10% FCS, 0.25% hemin, 32 μg/ml hygromycin and 2% sterile human urine at 25°C and 5% CO2.
(§2) Stock solutions of the compounds at 20 mM were prepared in 100% DMSO. Next, the compounds were serially pre-diluted in DMSO followed by a further dilution in demineralized water to assure a final in-test DMSO concentration below 1%. The compounds were tested at 4-fold dilutions starting at 64 μM.
For the antileishmania in vitro assays, 3×10^4 PMM/well were seeded in 96-well plates. After 24h, 5×10^5 amastigotes/well were added and incubated for 2h at 37°C. Next, the compounds in 4-fold serial dilutions were added and the plates were further incubated for 5 days (37°C, 5% CO2). Parasite burdens were assessed using an inverted microscope after Giemsa staining. The results were expressed as percent reduction in parasite burdens compared to negative control wells (100% growth) and IC50 values were determined. Values represent the geometric mean of at least two independent experiments. Miltefosine was used as the positive control in all plates.

[2] = test system: PMM (Primary Mouse Macrophages); assay: Cytotoxicity on primary peritoneal mouse macrophages; format: cell-based; conditions: Mus musculus, Macrophage, read-out: PMM IC50
Protocol: as §1, §2

MRC-5 cytotoxicity = format: cell-based; conditions: human, MRC-5 cells; S1 Data
[3] = Experimental distribution coefficient (eLogD); format: physicochemical; conditions: pH 7.4
Protocol: To determine the lipophilicity of the compounds, a methodology based on the retention time of molecules in reverse stationary phase (Ascentis RP-Amide HPLC column) was used. The chromatogram was obtained using LC-MS/MS. Test compounds were prepared at 1.0 μg/mL by adding the stock solution at (1:1) mobile phases A:B + internal standard at 200nM (A: 5% methanol in 10mM ammonium acetate pH 7.4, B: 100% methanol), DMSO concentration must be lower than 2%. […] The retention time (in minutes) of each of the eight standards was plotted against their LogD values. The resulting equation for the calibration curve (y = mx + b) was used to calculate the LogD values for the test compounds.

[4] = Parallel artificial membrane permeability assay (PAMPA); format: in vitro ADME
Protocol: To determine the passive permeability of the compounds, a 96-well plate containing membranes pre-coated with lipids (Corning Gentest # 353015) was used. The solutions of the compounds were prepared by diluting the stock solutions (10mM) in phosphate buffered saline (PBS) pH 6.5 at a final concentration of 10μM. The solutions diluted in PBS pH 6.5 were then added to the donor portion of the plate (300 μl/well), while PBS pH 7.4 (200 μl/well) was added to the acceptor portion. The two portions of the plate were then coupled, and the system was incubated for 5 h at 37°C. At the end of the incubation, samples were collected from the donor and acceptor plates, and then added to plates containing quench solution (10% water and 90% methanol: acetonitrile (50:50) + 50 nM tolbutamide). The final concentrations of compounds in the donor, acceptor, and initial solution (T0) wells were analyzed using LC-MS/MS. The results were used to calculate an effective permeability (Pe) value. The PAMPA assay was performed in triplicate (n = 3).

[5] = Mouse liver microsomal stability; format: in vitro ADME; conditions: for microsomal CLint at 0.5 μM: CD1, mouse, liver microsomes, pH 7.4, S1 Data, read-out: MLM CLint
Protocol: The metabolic stability of the compounds was evaluated in human (pool of 200 donors, XenoTech) and mouse liver microsomes (CD1 mouse, GIBCO). Test compounds were prepared at a concentration of 0.5 μM and incubated with 0.25 mg/mL liver microsomes at pH 7.4 and 37°C. The reaction was started by addition of NADPH at […]. Samples were taken at 0, 5, 10, 15, 20 and 30 minutes. The reaction was stopped by the addition of acetonitrile:methanol (1:1) containing an internal standard (tolbutamide at 50 nM). Compounds were quantified by liquid chromatography triple quadrupole mass spectrometry (LC-MS/MS). Peak area ratios (analyte/internal standard) were converted to % remaining using the area ratio at time 0 as 100%. Half-life (t1/2 = ln(2)/k) in minutes and intrinsic clearance (Clint = k x 1000/(0.25)) in μL/min/mg were calculated using a non-linear regression from % remaining versus incubation time. From this plot, the slope (k) was determined. The analysis conditions were: analytical column (Gemini C18, […], Phenomenex), electrospray ionization source (ESI) in positive and negative mode, mobile phase A (water + 0.1% formic acid) and B (acetonitrile + 0.1% formic acid), flow rate of 0.7 mL/min.

[6] = 120 h, intracellular amastigotes in PMM, 5 days
[7] = reverse stationary phase HPLC column (Ascentis RP-Amide), S1 Data
[8] = PAMPA, S1 Data, read-out: PAMPA Pe
[9] = reverse-phase HPLC retention (Ascentis RP-Amide column), experimental
[10] = mouse liver microsome intrinsic clearance

| Structure (SMILES) | IC50 [1, 6] [µM] | IC50 ([1]; S1 Data) [µM] | IC50 [2] [µM] | CC50 (MRC-5 cytotoxicity) [µM] | chromatographic logD [3, 7] | Papp at 5 h, 10 μM [4, 8] [×10⁻⁶ cm/s] | chromatographic logD [3, 9] | MLM CLint [5, 10] [µL/min/mg] | Papp at 5 h, 10 μM ([4]; passive permeability, read-out: PAMPA) [×10⁻⁶ cm/s] | SI: selectivity index (CC50 / IC50) [1] | microsomal CLint at 0.5 μM [5] [µL/min/mg] | MLM CLint ([5]; S1 Data) [µL/min/mg] | potency compared to initial hit 1 [1] [fold] | eLogD ([3]; experimental) |
| --- | --- | --- | --- | --- | --- | --- | --- | --- | --- | --- | --- | --- | --- | --- |
| O=C(Cc1ccc(Cl)cc1)Nc1nc2ccc(F)cc2n1CC(F)(F)F [Compound 23, Fc1cc2c(nc(NC(=O)Cc3ccc(Cl)cc3)n2CC(F)(F)F)cc1] | 4.8 | 4.82 | 45.2 | > 64 | 4.46 | 7.07 |  |  |  |  |  |  |  |  |
| CCCn1c(NC(=O)Cc2ccc(Cl)cc2)nc2ccccc21 [Compound 1] | 12 |  | > 64 |  |  |  | 4.6 | 3094 | 6.7 |  |  |  |  |  |
| CCN(CC)CCCn1c(NC(=O)c2ccnn2C)nc2ccc(C#N)cc21 [Compound 52, CCN(CC)CCCn1c(cc(C#N)cc2)c2nc1NC(c3ccnn3C)=O] | 57 | 57 | > 64 | > 64 |  |  |  |  |  | 1 | 59 |  |  |  |
| Cc1ccc(C(=O)Nc2nc3ccc(C#N)cc3n2CC(F)(F)F)cn1 [Compound 42, O=C(c1ccc(C)nc1)Nc2nc(ccc(C#N)c3)c3n2CC(F)(F)F] | 4.7 | 4.65 | 8 | > 64 |  | 13.2 |  |  |  | 2 |  |  |  |  |
| Cn1nccc1C(=O)Nc1nc2cccnc2n1CC(F)(F)F [Compound 53, O=C(c1ccnn1C)Nc2nc(cccn3)c3n2CC(F)(F)F] | 8.2 | 8.18 | 32 | 6.83 |  | 24.3 |  | 119 |  | 4 | 118 |  |  |  |
| Cn1nccc1C(=O)Nc1nc2ccc(C#N)cc2n1CC(F)F [Compound 47, FC(F)Cn1c(cc(C#N)cc2)c2nc1NC(c3ccnn3C)=O] | 8.8 | 8.78 | 22.6 | 12.3 |  | 10.6 |  |  |  | 3 |  | 383 |  |  |
| CC(C)(C)Cn1c(NC(=O)Cc2ccc(C(F)(F)F)cc2)nc2ccccc21 [Compound 20, CC(Cn1c(cccc2)c2nc1NC(Cc3ccc(C(F)(F)F)cc3)=O)(C)C] | 8.2 | 8.18 | 22.6 | > 32 |  |  | 4.9 |  |  |  |  |  |  |  |
| CCCn1c(NC(=O)Cc2ccc(Cl)cc2)nc2ccc(F)cc21 [Compound 3, CCCn1c(cc(F)cc2)c2nc1NC(=O)Cc3ccc(Cl)cc3] | 2.9 | 2.94 | 12.7 | 56.7 | 4.31 |  |  |  |  | 4 |  | 1590 |  |  |
| Cn1nccc1C(=O)Nc1nc2ccc(C#N)cc2n1CCF [Compound 48, FCCn1c(cc(C#N)cc2)c2nc1NC(c3ccnn3C)=O] | 28 | 27.9 | 32 | 13.7 |  | 63.7 |  |  |  | 1 |  | 154 |  |  |
| CCCn1c(NC(=O)Cc2ccc(Cl)cc2)nc2cc(C(F)(F)F)ccc21 [Compound 7, CCCn1c(ccc(C(F)(F)F)c2)c2nc1NC(Cc3ccc(Cl)cc3)=O] | 2 | 2.01 | 16 | 11.2 | 4.69 |  |  |  |  | 8 |  | 283 | 6 | 4.7 |
| Cn1c(NC(=O)Cc2ccc(Cl)cc2)nc2ccccc21 [Compound 17, O=C(Nc1n(C)c(cccc2)c2n1)Cc3ccc(Cl)cc3] | 33 | 32.5 | 32 | > 64 |  |  |  |  |  |  |  |  |  |  |
| Cn1cc(C(=O)Nc2nc3ccc(C#N)cc3n2CC(F)(F)F)cn1 [Compound 36, O=C(c1cn(C)nc1)Nc2nc(ccc(C#N)c3)c3n2CC(F)(F)F] | 8.7 | 8.74 | 16 | 56.1 |  |  |  |  |  | 2 |  |  |  |  |
| Cn1nncc1C(=O)Nc1nc2ccc(C#N)cc2n1CC(F)(F)F [Compound 33, O=C(c1cnnn1C)Nc2nc(ccc(C#N)c3)c3n2CC(F)(F)F] | 15 | 14.8 | 32 | > 64 | 4 |  |  |  |  | 2 |  |  |  | 4.0 |
| Cn1nccc1C(=O)Nc1nc2ccc(C#N)cc2n1C1CC1 [Compound 31, O=C(c1ccnn1C)Nc2nc(ccc(C#N)c3)c3n2C4CC4] | 30 | 30 | > 64 | > 64 |  | 14.4 |  |  |  | 2 | 162 |  |  |  |
| N#Cc1ccc2nc(NC(=O)c3cnc(C(F)(F)F)nc3)n(CC(F)(F)F)c2c1 [Compound 46, O=C(c1cnc(C(F)(F)F)nc1)Nc2nc(ccc(C#N)c3)c3n2CC(F)(F)F] | 1 |  | 4 | 1.78 |  | 1.46 |  |  |  | 4 |  |  | 10 to 20 |  |
| N#Cc1ccc2nc(NC(=O)c3ccnn3C3CC3)n(CC(F)(F)F)c2c1 [Compound 37, O=C(c1ccnn1C2CC2)Nc3nc(ccc(C#N)c4)c4n3CC(F)(F)F] | 10 | 10.1 | 45.2 | 3 |  |  |  |  |  | 5 |  |  |  |  |
| O=C(Cc1ccc(F)cc1)Nc1nc2cc(F)ccc2n1C1CCNCC1 [Compound 25, O=C(Nc1n(C2CCNCC2)c(c3n1)ccc(F)c3)Cc4ccc(F)cc4] | 34 | 34.4 | > 64 | > 64 | 3.08 | 0.19 |  |  |  |  |  |  |  |  |
| CCCn1c(NC(=O)Cc2ccc(Cl)cc2)nc2cc(F)ccc21 [Compound 4, CCCn1c(ccc(F)c2)c2nc1NC(=O)Cc3ccc(Cl)cc3] | 4.3 | 4.35 | 20.2 | > 64 | 4.26 |  |  |  |  | 5 |  | 1510 |  |  |
| CCN(CC)CCCn1c(NC(=O)Cc2ccc(F)cc2)nc2ccc(C#N)cc21 [Compound 26, CCN(CC)CCCn1c(cc(C#N)cc2)c2nc1NC(Cc3ccc(F)cc3)=O] |  | > 64 | > 64 | > 64 |  |  |  |  |  |  | 154 |  |  |  |
